The conditions of data set [1]: cited from earlier work.
The conditions of data set [2]: cited from earlier work. The source holds these as a separate data set.
A further data set relates to cell membrane. The settings on record: Xu & McLeod 2001; cited from earlier work.
A further data set addresses WT αHL pore (Staphylococcus aureus, UniProt P09616). In kind it is biochemical, staphylococcal. As to conditions: pH 8.
Another data set addresses αHL (Staphylococcus aureus, UniProt P09616). The settings on record: pH 7; cited from earlier work.

Like-named read-outs stand apart in the source and are kept apart here. A value given as a limit tells only on which side of the number the result lay.

Chain of WT αHL pore (P09616 27-319 limits assumed): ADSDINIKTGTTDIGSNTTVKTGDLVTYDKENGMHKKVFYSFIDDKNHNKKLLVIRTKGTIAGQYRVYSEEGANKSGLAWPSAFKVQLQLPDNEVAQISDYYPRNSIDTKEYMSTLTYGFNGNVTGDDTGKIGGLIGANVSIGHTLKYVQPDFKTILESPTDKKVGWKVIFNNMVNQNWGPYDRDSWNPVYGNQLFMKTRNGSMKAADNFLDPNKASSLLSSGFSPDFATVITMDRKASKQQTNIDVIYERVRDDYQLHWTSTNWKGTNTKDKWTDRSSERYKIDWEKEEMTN
Chain of αHL (P09616 27-319 limits assumed): as above

Regarding `O=C(O)CN(CCN(CC(=O)O)CC(=O)O)CC(=O)O` [EDTA], the “koff for Ca^2+ dissociation” value in data set [1] (Naraghi 1997, Johnson et al. 1999) is under 1 s⁻¹.

Consider `CC/C(=C(\c1ccc(O)cc1)c1ccc(OCCN(C)C)cc1)c1ccc(C(C)C)cc1` [Miproxifene, miproxifene], for which the “water solubility less than miproxifene phosphate” value in data set [2] (relative to miproxifene phosphate) was 1,000 times.

Regarding `COc1cccc2c1C(=O)c1c(O)c3c(c(O)c1C2=O)C[C@@](O)(C(=O)CO)C[C@@H]3O[C@H]1C[C@H](N)[C@H](O)[C@H](C)O1` [doxorubicin], in the data set with cell membrane, the “permeability to the cell membrane” value is “able to access the cytosol and is”.

Turning to `OC[C@H]1O[C@@H]2O[C@H]3[C@H](O)[C@@H](O)[C@@H](O[C@H]4[C@H](O)[C@@H](O)[C@@H](O[C@H]5[C@H](O)[C@@H](O)[C@@H](O[C@H]6[C@H](O)[C@@H](O)[C@@H](O[C@H]7[C@H](O)[C@@H](O)[C@@H](O[C@H]8[C@H](O)[C@@H](O)[C@@H](O[C@H]9[C@H](O)[C@@H](O)[C@@H](O[C@H]1[C@H](O)[C@H]2O)O[C@@H]9CO)O[C@@H]8CO)O[C@@H]7CO)O[C@@H]6CO)O[C@@H]5CO)O[C@@H]4CO)O[C@@H]3CO` [γCD, γ-cyclodextrin], at WT αHL pore, the “current blockade (blocking) amplitude, mean±s.d.” value was 63.7±2.0% and the “dissociation rate, mean±s.d.” value was found to be 4.0 ± 0.6 s⁻¹. On αHL, the blocking amplitude is reported as about 60% and the dissociation rate was 2.0 s⁻¹.

On to fluo-4, for which the “koff for Ca^2+ dissociation” value in data set [1] was about 400 s⁻¹.

miproxifene phosphate: the “aqueous solubility greater than miproxifene” value in data set [2] (relative to miproxifene, Rautio et al. 2008) is on record as 1,000 fold.

(Values after patent US11998642B2 (priority 2011, dated 2024).)
